The values below come from ChEMBL document CHEMBL1145624, “The isolation, structure determination and cytotoxicity of the new fungal metabolite, trichodermamide C” (Bioorg Med Chem Lett, 2008).

Converted amounts (≈) assume the structure as drawn.

In one assay the test system is A549. Nature of the assay: Cytotoxicity against human A549 cells after 24 hrs. The format is functional, cell-based. As to conditions: A549, 24 h.
The test system of the next assay is HCT-116. Nature of the assay: Cytotoxicity against human HCT116 cells after 24 hrs. In kind it is functional, cell-based. As to conditions: HCT-116, 24 h.

Usually IC50 stands for the concentration needed to halve the response being measured. On to `COc1ccc2cc(N(C)C(=O)C3=NO[C@H]4[C@H](O)C=C[C@@H](O)[C@@]4(O)C3)c(=O)oc2c1OC` [TRICHODERMAMIDE C], for which the IC50 was 4.28 µg/mL (≈ 9.59 µM) in the assay with A549 and 0.68 µg/mL (≈ 1.52 µM) with HCT-116.
